Test results taken from patent publication US4231925A, “Pentapeptides with analgesic activity on peripheral administration” (American Home Products Corporation, priority 1979, dated 1980).
“And” between values parts separate entries of the source, which are not always exact repeats. Equal entries are not always repeated. Where two headings read alike, the source gives them in different places.

Experiments:
[1] = intracerebroventricularly, intravenously, or subcutaneously; cited from earlier work
[2] = test system: phenylbenzoquinone (PBQ)-induced writhing; assay: phenylbenzoquinone-induced writhing test, subcutaneous administration; format: in vivo, mice
Description: The procedure is a modification of the method described by Siegmund and Cadmus, Proc. Soc. Exp. Biol. Med., 95, 729-731 (1957), which is used to evaluate both narcotic and non-narcotic analgesics. […] Laboratory mice of either sex, weighing 18-27 g. are used in groups of ten as test subjects. The test compound is administered first in an initial dose determined by the potency of the class of compounds and the route of administration. The test is run first in one group of mice at a relatively high dose to establish significant analgesic activity [see (1) in Table I]. When analgesic activity is observed in four or more of this group, a second test is run on at least three groups of mice to determine the most appropriate dose/time response to use in the subsequent dose response test [see (2) in Table I]. Finally, the ED50 dose is determined by administering different doses to several groups of mice and observing their reaction during the time interval established by the dose/time test [see (3)-(9) in Table I]. Note that the time interval is designated by the median time of the chosen response observation period (e.g. 15, 30, or 45 minutes). In testing each group of mice according to the above protocol, all mice in the group first are administered the selected dose of the test compound solution. Five minutes prior to the observation period (viz. at 5, 20, or 35 minutes after subcutaneous administration of the test compound of at 20, 50, or 80 minutes after oral administration of the test compound) all mice in the group receive 0.25 ml., intraperitoneally, of the writhing agonist (i.e. 0.02% solution of PBQ). At the chosen time interval, the group of mice is observed for a period of ten minutes for writhing.

[3] = test system: rat brain opiate receptors; assay: in vitro opiate receptor assay, 3H-naloxone displacement in rat brain homogenate; format: binding; settings: relative to morphine = 1.0
Description: In this procedure, a fasted male Charles River CD rat, 190-290 g., is killed with a guillotine after carbon-dioxideanesthesia, and the brain is rapidly removed. After the cerebellum is excised, the brain is homogenized in 100 vol. (usually 150 ml.) iced 0.05 M Trizma buffer (pH 7.4 at 25°) 0.1 M in sodium chloride in a Brinkman Polytron for 1 min. at setting 3. The homogenate is centrifuged at 49,500 g for 15 min. (Sorvall SS-34 rotor at 19,500 rpm) in 50 ml. propylene tubes. The supernatant is decanted, and the pellets are resuspended in iced buffer to the original volume by use of a motor driven pestle tissue grinder. The homogenate is centrifuged again and resuspended in 10 ml. iced buffer.
Homogenates and samples ae equilibrated at room temperature for 5 minutes before adding 0.05 ml. 3 H-naloxone solution to give a total volume of 0.50 ml. for all tubes.
The assay tubes are hand-shaken every 15 min. for an incubation time of 60 min. at 0° C. The contents are filtered under reduced pressure through Whatman glass-fiber circles (GF/B, 2.4 cm. dia.). […] The vials are hand-shaken immediately, after 30 min., at the end of the day, stored overnight, hand-shaken, and radioactivity is determined by liquid-sintillation spectrometry.
The assay is calculated as follows: […]

[4] = rat lateral brain ventricle; cited from earlier work
opiate receptor = settings: electrically stimulated guinea pig ileum; cited from earlier work
tail-flick = settings: rat, cited from earlier work
[5] = oral administration; cited from earlier work
[6] = e.g. subcutaneously or intravenously; cited from earlier work
[7] = rat blood plasma; cited from earlier work
[8] = human blood plasma; cited from earlier work

(D-Met^2, Pro^5)-enkephalin amide
analgesic activity [1]: elicits analgesic activity

CN[C@@H](Cc1ccc(O)cc1)C(=O)N[C@H](CCSC)C(=O)NCC(=O)N(C)[C@@H](Cc1ccccc1)C(=O)N[C@H](CO)C(N)=O [Example 1, N-Methyl-Tyrosyl-D-Methionyl-Glycyl-N-Methyl-Phenylalanyl-D-Serinamide . Acetate]
No. Analgesic / Total No. Tested ([2]; (1) 10.0 mg/kg subcutaneous, 15 minutes, 10 mg/kg): 10/10 and 10 of 10 | No. Analgesic / Total No. Tested ([2]; (2) dose/time test, 0.1 mg/kg subcutaneous, 15 minutes): 4/10 | No. Analgesic / Total No. Tested ([2]; (2) dose/time test, 0.1 mg/kg subcutaneous, 30 minutes): 3/10 | No. Analgesic / Total No. Tested ([2]; (2) dose/time test, 0.1 mg/kg subcutaneous, 45 minutes): 1/10 | No. Analgesic / Total No. Tested ([2]; (3) 0.032 mg/kg subcutaneous, 15 minutes): 0/10 | No. Analgesic / Total No. Tested ([2]; (4) 0.056 mg/kg subcutaneous, 15 minutes): 3/10 | No. Analgesic / Total No. Tested ([2]; (5) dose response test, 0.1 mg/kg subcutaneous, 15 minutes): 2/10 | No. Analgesic / Total No. Tested ([2]; (6) 0.178 mg/kg subcutaneous, 15 minutes): 6/10 | No. Analgesic / Total No. Tested ([2]; (7) 0.316 mg/kg subcutaneous, 15 minutes): 5/10 | No. Analgesic / Total No. Tested ([2]; (8) 0.56 mg/kg subcutaneous, 15 minutes): 4/10 | No. Analgesic / Total No. Tested ([2]; (9) 1.00 mg/kg subcutaneous, 15 minutes, 1 mg/kg): 8/10 and 8 of 10 | ED50 ([2]; subcutaneous, mice, complete inhibition of PBQ-induced writhing, 15 minutes): 0.33 mg/kg | Relative Displacement Potency [3]: 14 | Relative Displacement Potency ([3]; listed as Example I): in excess of ten times

(Ser^5)-enkephalin
analgesic activity [4]: eliciting analgesic activity

(D-Met^2, Leu^5) enkephalin, methyl ester
opiate receptor agonist activity (opiate receptor): strong opiate receptor agonist activity

CN1CC[C@]23c4c5ccc(O)c4O[C@H]2[C@@H](O)C=C[C@H]3[C@H]1C5 [Morphine]
duration of analgesia (tail-flick; morphine comparison): an hour or more

(D-Ala^2, Me-Phe^4, Met(0)^5)-enkephalin
analgesic activity [5]: elicited analgesic activity

H--Tyr--Gly--Gly--Phe--Met--OH [Met-enkephalin]
dose producing analgesia equivalent to morphine (tail-flick; intraventricular): 10-20 times that of morphine | duration of analgesia (tail-flick; intraventricular): 10 to 12 min | activity when administered systemically [6]: virtually inactive | breakdown in blood plasma [7]: broken down | breakdown in blood plasma [8]: broken down

H--Tyr--Gly--Gly--Phe--Leu--OH [Leu-enkephalin]
dose producing analgesia equivalent to morphine (tail-flick; intraventricular): 10-20 times that of morphine | duration of analgesia (tail-flick; intraventricular): 10 to 12 min | activity when administered systemically [6]: virtually inactive

(D-Ala^2, Met(O)^5)-enkephalin
analgesic activity [5]: elicited analgesic activity
